ChEMBL document CHEMBL5055666, “Tyrosine-Derived Novel Benzoxazine Active in a Rat Syngenic Mammary Tumor Model of Breast Cancer” (J Med Chem, 2021)
The source made the active and inactive calls. The rule behind the calls is not given here.

Legend:
MCF-10A [1] = test: Antiproliferative activity against human MCF-10A cells assessed as inhibition of cell growth incubated for 72 hrs by MTT assay; format: cell-based
MCF7 [2] = test: Induction of cell damage in human MCF7 cells assessed as increase in LDH release at 0.125 to 100 uM; format: functional, cell-based; conditions: dose 0.125-100 µM
[3] = Mean residence time in Sprague-Dawley rat at 5 mg/kg, po measured upto 24 hrs; format: ADME, organism-based; conditions: in vivo
LA7 [4] = test: Antiproliferative activity against rat LA7 cells assessed as inhibition of cell growth incubated for 72 hrs by MTT assay; format: functional, cell-based; conditions: LA7, 72 h
[5] = Apparent oral volume of distribution in Sprague-Dawley rat at 0.5 mg/kg, iv measured upto 24 hrs; format: ADME, organism-based; conditions: in vivo
LA7 [6] = test: Antitumor activity against rat LA7 cells inoculated in Sprague-Dawley rat assessed as reduction in formation of neoplastic lesions in lungs at 5 to 20 mg/kg administered daily for 21 days; format: functional, organism-based; conditions: dose 5-20 mg/kg, time 21.0 day
[7] = AUC(0 to infinity) in Sprague-Dawley rat at 0.5 mg/kg, iv measured upto 24 hrs; format: ADME, organism-based; design: time < 24 hrs, dose 0.5 mg/kg, route iv; conditions: in vivo
MDA-MB-231 [8] = test: Induction of apoptosis in human MDA-MB-231 cells assessed as nuclear blabbing after 24 hrs by DAPI staining based fluorescent microscopic analysis; format: functional, cell-based; conditions: dose 0.125-1 µM
MDA-MB-231 [9] = test: Antiproliferative activity against human MDA-MB-231 cells assessed as inhibition of cell growth incubated for 48 hrs by MTT assay; format: functional, cell-based; conditions: MDA-MB-231, 48 h
[10] = Apparent oral clearance in Sprague-Dawley rat at 0.5 mg/kg, iv measured upto 24 hrs; format: ADME, organism-based; conditions: in vivo
MDA-MB-231 [11] = test: Induction of cell damage in human MDA-MB-231 cells assessed as increase in LDH release at 0.125 to 100 uM; format: functional, cell-based; conditions: dose 0.125-100 µM
[12] = Tmax in Sprague-Dawley rat at 5 mg/kg, po measured upto 24 hrs; format: ADME, organism-based; conditions: in vivo
MDA-MB-231 [13] = test: Induction of cell cycle arrest in human MDA-MB-231 cells assessed as increase in sub-diploid population at 0.125 to 1 uM after 24 to 48 hrs by propidium iodide staining based flow cytometric analysis; format: functional; conditions: dose 0.125-1 µM, time 24-48 hrs
MCF7 [14] = test: Antiproliferative activity against human MCF7 cells assessed as inhibition of cell growth incubated for 48 hrs by MTT assay; format: functional, cell-based; conditions: MCF7, 48 h
[15] = Half life in Sprague-Dawley rat at 5 mg/kg, po measured upto 24 hrs; format: ADME, organism-based; conditions: in vivo
Rattus norvegicus [16] = test: Toxicity in Sprague-Dawley rat inoculated with rat LA7 cells assessed as change in organ weight at 5 to 20 mg/kg administered daily for 21 days; format: organism-based; conditions: la7, 504 h, dose 5-20 mg/kg, time 21 day
[17] = AUC(0 to infinity) in Sprague-Dawley rat at 5 mg/kg, po measured upto 24 hrs; format: ADME, organism-based; design: dose 5 mg/kg, time < 24 hrs, route po; conditions: in vivo
Rattus norvegicus [18] = test: Toxicity in Sprague-Dawley rat inoculated with rat LA7 cells assessed as increase in uterine tissue at 5 to 20 mg/kg administered daily for 21 days; format: organism-based; conditions: la7, 504 h, dose 5-20 mg/kg, time 21 day
MCF7 [19] = test: Upregulation of ERbeta expression in human MCF7 cells after 24 hrs by immunoblot analysis; format: functional, cell-based; conditions: dose 500-5 µM
Rattus norvegicus [20] = test: Toxicity in Sprague-Dawley rat inoculated with rat LA7 cells assessed as mortality at 5 to 20 mg/kg administered daily for 21 days; format: organism-based; conditions: la7, 504 h, dose 5-20 mg/kg, time 21 day
MDA-MB-231 [21] = test: Induction of apoptosis in human MDA-MB-231 cells assessed as nuclear condensation after 24 hrs by DAPI staining based fluorescent microscopic analysis; format: functional, cell-based; conditions: dose 0.125-1 µM
[22] = Half life in Sprague-Dawley rat at 0.5 mg/kg, iv measured upto 24 hrs; format: ADME, organism-based; conditions: in vivo
MDA-MB-231 [23] = test: Disruption of mitochondrial membrane integrity in human MDA-MB-231 cells assessed as reduction in mitochondrial membrane potential at 0.125 to 1 uM by JC-1 staining based flow cytometry analysis; format: functional, cell-based; conditions: dose 0.125-1 µM
MCF7 [24] = test: Induction of cell cycle arrest in human MCF7 cells assessed as increase in sub-diploid population at 0.125 to 1 uM after 24 to 48 hrs by propidium iodide staining based flow cytometric analysis; format: functional; conditions: dose 0.125-1 µM, time 24-48 hrs
MCF7 [25] = test: Induction of apoptosis in human MCF7 cells assessed as nuclear blabbing after 24 hrs by DAPI staining based fluorescent microscopic analysis; format: functional, cell-based; conditions: dose 0.125-1 µM
MCF-10A [26] = test: Antiproliferative activity against human MCF-10A cells assessed as inhibition of cell growth incubated for 24 hrs by MTT assay; format: cell-based
[27] = Apparent oral volume of distribution in Sprague-Dawley rat at 5 mg/kg, po measured upto 24 hrs; format: ADME, organism-based; conditions: in vivo
[28] = Mean residence time in Sprague-Dawley rat at 0.5 mg/kg, iv measured upto 24 hrs; format: ADME, organism-based; conditions: in vivo
[29] = Drug release in tris buffer pH 7.4 after 10 min by membrane dialysis method; format: physicochemical; conditions: pH 7.4, 10 min
MDA-MB-231 [30] = test: Antiproliferative activity against human MDA-MB-231 cells assessed as inhibition of cell growth incubated for 72 hrs by MTT assay; format: functional, cell-based; conditions: MDA-MB-231, 72 h
MCF7 [31] = test: Antiproliferative activity against human MCF7 cells assessed as inhibition of cell growth incubated for 72 hrs by MTT assay; format: functional, cell-based; conditions: MCF7, 72 h
MCF7 [32] = test: Downregulation of ERalpha expression in human MCF7 cells after 24 hrs by immunoblot analysis; format: functional, cell-based
[33] = Cmax in Sprague-Dawley rat at 0.5 mg/kg, iv measured upto 24 hrs; format: ADME, organism-based; design: time < 24 hrs, dose 0.5 mg/kg, route iv; conditions: in vivo
[34] = Tmax in Sprague-Dawley rat at 0.5 mg/kg, iv measured upto 24 hrs; format: ADME, organism-based; conditions: in vivo
MDA-MB-231 [35] = test: Induction of apoptosis in human MDA-MB-231 cells assessed as increase in total apoptotic population at 0.125 to 1 uM after 24 to 48 hrs by Annexin V-FITC/propidium iodide staining based flow cytometric analysis; format: functional, cell-based; conditions: dose 0.125-1 µM, time 24-48 hrs
LA7 [36] = test: Antiproliferative activity against rat LA7 cells assessed as inhibition of cell growth incubated for 48 hrs by MTT assay; format: functional, cell-based; conditions: LA7, 48 h
MCF7 [37] = test: Induction of apoptosis in human MCF7 cells assessed as increase in total apoptotic population at 0.125 to 1 uM after 24 to 48 hrs by Annexin V-FITC/propidium iodide staining based flow cytometric analysis; format: functional, cell-based; conditions: dose 0.125-1 µM, time 24-48 hrs
LA7 [38] = test: Antiproliferative activity against rat LA7 cells assessed as inhibition of cell growth incubated for 24 hrs by MTT assay; format: functional, cell-based; conditions: LA7, 24 h
[39] = Cmax in Sprague-Dawley rat at 5 mg/kg, po measured upto 24 hrs; format: ADME, organism-based; design: time < 24 hrs, dose 5 mg/kg, route po; conditions: in vivo
MDA-MB-231 [40] = test: Antiproliferative activity against human MDA-MB-231 cells assessed as inhibition of cell growth incubated for 24 hrs by MTT assay; format: functional, cell-based; conditions: MDA-MB-231, 24 h
MCF7 [41] = test: Antiproliferative activity against human MCF7 cells assessed as inhibition of cell growth incubated for 24 hrs by MTT assay; format: functional, cell-based; conditions: MCF7, 24 h
MDA-MB-231 [42] = test: Induction of intracellular ROS generation in human MDA-MB-231 cells at 0.125 to 1 uM incubated for 24 hrs by DCFH-DA staining-based flow cytometric analysis; format: functional, cell-based; conditions: dose 0.125-1 µM
LA7 [43] = test: Antitumor activity against rat LA7 cells inoculated in Sprague-Dawley rat assessed as inhibition of tumor growth at 5 to 20 mg/kg administered daily for 21 days; format: functional, organism-based; conditions: dose 5-20 mg/kg, time 21.0 day
[44] = Induction of cell damage in human HEK293 cells assessed as increase in LDH release at > 20 uM; format: cell-based; conditions: hek293, 20 µM
MCF7 [45] = test: Induction of intracellular ROS generation in human MCF7 cells at 0.125 to 1 uM incubated for 24 hrs by DCFH-DA staining-based flow cytometric analysis; format: functional, cell-based; conditions: dose 0.125-1 µM
MCF7 [46] = test: Induction of apoptosis in human MCF7 cells assessed as nuclear condensation after 24 hrs by DAPI staining based fluorescent microscopic analysis; format: functional, cell-based; conditions: dose 0.125-1 µM
MCF7 [47] = test: Disruption of mitochondrial membrane integrity in human MCF7 cells assessed as reduction in mitochondrial membrane potential at 0.125 to 1 uM by JC-1 staining based flow cytometry analysis; format: functional, cell-based; conditions: dose 0.125-1 µM
[48] = Apparent oral clearance in Sprague-Dawley rat at 5 mg/kg, po measured upto 24 hrs; format: ADME, organism-based; conditions: in vivo

Question: For `COc1ccc(C[C@H]2COc3ccccc3N2Cc2ccc(OCCN3CCCC3)cc2)cc1`, which IC50 (MCF-10A [1]) is on record?
Answer: > 18000 nM

Question: And the Activity (MCF7 [2])?
Answer: Active

Question: What about the MRT [3] of the same molecule?
Answer: 16.1 h

Question: What about the IC50 (LA7 [4]) of the same molecule?
Answer: 190 nM

Question: What about the Vd/F [5] of the same molecule?
Answer: 19.9 L/kg

Question: And the Activity (LA7 [6])?
Answer: Active

Question: And the AUC(0-inf) [7]?
Answer: 124 ng·h/mL

Question: What about the Activity (MDA-MB-231 [8]) of the same molecule?
Answer: Dose-dependent effect

Question: And the IC50 (MDA-MB-231 [9])?
Answer: 700 nM

Question: What about the CL/F [10] of the same molecule?
Answer: 68.8 mL/min/kg

Question: What about the Activity (MDA-MB-231 [11]) of the same molecule?
Answer: Active

Question: What about the Tmax [12] of the same molecule?
Answer: 0.25 h

Question: What about the Activity (MDA-MB-231 [13]) of the same molecule?
Answer: Dose-dependent effect

Question: What about the IC50 (MCF7 [14]) of the same molecule?
Answer: 300 nM

Question: And the half-life [15]?
Answer: 8.97 h

Question: And the Activity (Rattus norvegicus [16])?
Answer: Non-Toxic

Question: And the AUC(0-inf) [17]?
Answer: 506 ng·h/mL

Question: What about the Activity (Rattus norvegicus [18]) of the same molecule?
Answer: Non-Toxic

Question: What about the Activity (MCF7 [19]) of the same molecule?
Answer: Dose-dependent effect

Question: What about the Activity (Rattus norvegicus [20]) of the same molecule?
Answer: Non-Toxic

Question: And the Activity (MDA-MB-231 [21])?
Answer: Dose-dependent effect

Question: And the half-life [22]?
Answer: 3.42 h

Question: And the Activity (MDA-MB-231 [23])?
Answer: Active

Question: And the Activity (MCF7 [24])?
Answer: Dose-dependent effect

Question: What about the Activity (MCF7 [25]) of the same molecule?
Answer: Dose-dependent effect

Question: What about the IC50 (MCF-10A [26]) of the same molecule?
Answer: > 25000 nM

Question: What about the Vd/F [27] of the same molecule?
Answer: 140 L/kg

Question: And the MRT [28]?
Answer: 4.66 h

Question: And the Drug transport [29]?
Answer: 90%

Question: And the IC50 (MDA-MB-231 [30])?
Answer: 700 nM

Question: What about the IC50 (MCF7 [31]) of the same molecule?
Answer: 250 nM

Question: And the Activity (MCF7 [32])?
Answer: Dose-dependent effect

Question: What about the Cmax [33] of the same molecule?
Answer: 49.6 ng/mL

Question: What about the Tmax [34] of the same molecule?
Answer: 0.83 h

Question: What about the Activity (MDA-MB-231 [35]) of the same molecule?
Answer: Active

Question: And the IC50 (LA7 [36])?
Answer: 240 nM

Question: And the Activity (MCF7 [37])?
Answer: Active

Question: What about the IC50 (LA7 [38]) of the same molecule?
Answer: 660 nM

Question: What about the Cmax [39] of the same molecule?
Answer: 43.2 ng/mL

Question: What about the IC50 (MDA-MB-231 [40]) of the same molecule?
Answer: 650 nM

Question: What about the IC50 (MCF7 [41]) of the same molecule?
Answer: 200 nM

Question: And the Activity (MDA-MB-231 [42])?
Answer: Active

Question: And the Activity (LA7 [43])?
Answer: Active

Question: And the Activity [44]?
Answer: Toxic

Question: And the Activity (MCF7 [45])?
Answer: Active

Question: And the Activity (MCF7 [46])?
Answer: Dose-dependent effect

Question: What about the Activity (MCF7 [47]) of the same molecule?
Answer: Active

Question: And the CL/F [48]?
Answer: 176 mL/min/kg
